Experimental data from publication PMC6027051, “Polymer–Surfactant System Based Amorphous Solid Dispersion: Precipitation Inhibition and Bioavailability Enhancement of Itraconazole” (Pharmaceutics, 2018).
In brackets after ≈: the same amount, converted by molar mass. Read-outs that look alike come from different tables or passages of the source.

Experiments:
Format in all cases: physicochemical
[1] = Supersaturation dissolution test with pH-shift (SGF to SIF, USP paddle method)
Protocol: In order to simulate the drug peristalsis in vivo situation, a transfer of simulated gastric fluid (SGF) to SIF was conducted for in vitro dissolution experiment. Supersaturation dissolution tests were performed according to USP 29 Apparatus 2 guidelines (paddle method) with a ZRS-8G dissolution tester (TDTF, Tianjin, China). Briefly, samples containing equivalent amounts of ITZ (45 mg) were subjected to each dissolution vessel containing SGF (750 mL of 0.1 N HCl) for 2 h, followed by pH adjustment to 6.8 by the addition of 250 mL of 0.2 M tribasic sodium phosphate (Na3PO4) for additional 3 h. The dissolution media was kept at 37.0 ± 0.5 °C and the paddle speed was maintained at 100 rpm throughout the test procedure. Aliquot samples (5 mL) were withdrawn at predetermined time intervals (120, 125, 150, 180, 240, and 300 min). The samples were filtered through a […] millipore filter and the first few drops were discarded. The filtrate was immediately diluted with methanol to prevent the precipitation. The ITZ concentration was assayed by ultraviolet spectrophotometry (TU-1901, Beijing Purkinje General Instrument Co., Ltd., Beijing, China) at a wavelength of 263 nm. The calibration curve of ITZ in UV spectrophotometry was shown in Figure 1B with a concentration range of 0.25–80 μg/mL. […]

[2] = Nucleation induction time measurement (turbidity at 490 nm, plate reader) in SIF; conditions: supersaturated ITZ solution by solvent shift (DMSO stock into SIF), absorbance 490 nm
Protocol: Supersaturation stability is commonly evaluated by measuring the induction time for nucleation, which is defined as the time lag for the appearance of the observable crystals. In this study, the precipitation induction time of different formulations were obtained by determining the changes in turbidity using plate reader detection technique. Supersaturated ITZ solutions were prepared by the solvent shift method. All the samples were dissolved in dimethyl sulfoxide (DMSO) to obtain ITZ stock solution at a concentration of 1mg/mL, then the stock solution was added into SIF and stirred constantly to generate a supersaturated solution. Immediately, 300 μL of individual supersaturated solution was transferred into a 96-well polypropylene plate and the optical density value of each well was measured at 490 nm using plate reader (Bio-Tek, Winooski, VT, USA). […] Thus, the turbidity was the only contributor to the changed absorbance. The samples were also shaken before the measurement and each formulation was detected in triplicate. All the analyses and calculations were carried out using Gen 5.0 (Bio-Tek, Winooski, VT, USA).

[3] = Equilibrium solubility of ITZ in SIF with or without surfactant (shaking flask method); conditions: for solubility thermodynamic at 48 h: 37 °C, n = 3, read-out: ITZ Concentration in SIF (equilibrium solubility)
Protocol: An excess amount of ITZ was added to SIF with or without pre-dissolved surfactant (1 mg/mL) and mixed by vortex for 2 min. After incubation in a shaking incubator at 37 °C for 48 h, the suspension was centrifuged (15,000 rpm for 10 min) and filtered through a 0.22 μm Millipore filter (Jinteng Experimental Equipment Co., Ltd, Tianjin, China). Prior to assay by high performance liquid (HPLC) (Shimadzu Corporation, Kyoto, Japan) using a PhenomenexC18 column (4.6 × 250 mm, 5 μm), the filtrate was diluted 1:1 with mobile phase. The mobile phase was consisted of 0.5% diisopropylamine in methanol and 0.1% ammonium acetate in distilled water (80:20) with a rate of 1.0 mL/min. The effluent was monitored at an ultraviolet-visible (UV) absorption wavelength of 263 nm. The retention time of ITZ under these conditions was 4.9 min. Calibration curve (Figure 1A) were linear over a concentration range of 0.04–40 μg/mL. The limit of quantitation (LOQ) and limit of detection (LOD) was 25 ng and 10 ng, respectively. Each equilibrium solubility test was performed in triplicate.

- ITZ released after 2 h in SGF ([1]; SGF (0.1 N HCl), 120 min, 37 °C, 45 mg ITZ): 3%
- Cumulative release amount after pH change to 6.8 (rapid precipitation, eventually dropped to) ([1]; SIF pH 6.8, precipitation from five minutes after the pH change): < 1%
- solubility thermodynamic at 48 h ([3]; SIF with Poloxamer 188 1 mg/mL, pH 6.8, SIF pH 6.8 with Poloxamer 188 1 mg/mL): 0.92 ± 0.27 µg/mL (≈ 1.3 µM)
- solubility thermodynamic at 48 h ([3]; SIF with SDS 1 mg/mL, pH 6.8, SIF pH 6.8 with SDS 1 mg/mL): 1.66 ± 0.53 µg/mL (≈ 2.35 µM)
- solubility thermodynamic at 48 h ([3]; SIF with Soluplus 1 mg/mL, pH 6.8, SIF pH 6.8 with Soluplus 1 mg/mL): 0.1 ± 0.06 µg/mL (≈ 0.142 µM)
- solubility thermodynamic at 48 h ([3]; SIF with TPGS 1 mg/mL, pH 6.8, SIF pH 6.8 with TPGS 1 mg/mL): 4.83 ± 0.81 µg/mL (≈ 6.84 µM)
- Increase of equilibrium solubility in the presence of TPGS over SIF ([3]; SIF with TPGS vs SIF alone): approximately 580 fold
- solubility thermodynamic at 48 h ([3]; SIF with Tween 80 1 mg/mL, pH 6.8, aqueous with cosolvent or surfactant or cyclodextrin, thermodynamic from solid, SIF pH 6.8 with Tween 80 1 mg/mL): 0.03 ± 0.01 µg/mL (≈ 0.0425 µM)
- solubility thermodynamic at 48 h ([3]; SIF with sodium cholate 1 mg/mL, pH 6.8, aqueous with cosolvent or surfactant or cyclodextrin, thermodynamic from solid, SIF pH 6.8 with Sodium cholate 1 mg/mL): 0.07 ± 0.02 µg/mL (≈ 0.0992 µM)
- solubility thermodynamic at 48 h ([3]; simulated intestinal fluid (SIF) without surfactant, pH 6.8, fassgf or other biorelevant, thermodynamic from solid, SIF pH 6.8 without surfactant (Blank group)): ~0.008 µg/mL (≈ 0.0113 µM)
SMILES: CCC(C)n1ncn(-c2ccc(N3CCN(c4ccc(OCC5COC(Cn6cncn6)(c6ccc(Cl)cc6Cl)O5)cc4)CC3)cc2)c1=O (centres unmarked) [ITZ, Itraconazole]
- Turbidity / precipitation behaviour in the absorbance-time curve [2]: rapid increase in the absorbance followed by a gradual decline
